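Each compound was tested at five concentrations against cells in 96-well plates for 48 hours. TGI is the concentration that stops growth completely.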
What was measured:
Experiment in all cases: DTP human tumour cell line panel, 48 h
[1] = system: 786-0 renal
[2] = system: A549 NSCLC
[3] = system: CCRF-CEM leukemia
[4] = system: DU-145 prostate
[5] = system: EKVX NSCLC
[6] = system: HCC-2998 colon
[7] = system: HOP-62 NSCLC
[8] = system: HOP-92 NSCLC
[9] = system: HS 578T breast
[10] = system: HT29 colon
[11] = system: K-562 leukemia
[12] = system: M14 melanoma
[13] = system: MOLT-4 leukemia
[14] = system: OVCAR-3 ovarian
[15] = system: OVCAR-8 ovarian
[16] = system: SF-268 CNS
[17] = system: SF-295 CNS
[18] = system: SNB-75 CNS

SMILES	TGI [1] [µM]	TGI [2] [µM]	TGI [3] [µM]	TGI [4] [µM]	TGI [5] [µM]	TGI [6] [µM]	TGI [7] [µM]	TGI [8] [µM]	TGI [9] [µM]	TGI [10] [µM]	TGI [11] [µM]	TGI [12] [µM]	TGI [13] [µM]	TGI [14] [µM]	TGI [15] [µM]	TGI [16] [µM]	TGI [17] [µM]	TGI [18] [µM]
CC1(C)C2CCC3CC(CCC#N)CCC3C21C#N (stereo not given)	> 100	> 100	> 100	> 100	> 100	> 100	> 100	> 100	> 100	> 100	> 100	> 100	> 100	> 100	> 100	> 100	> 100	
CCOC1OC(CO)C(O)CC1n1ccc(=O)[nH]c1=O (stereo not given)	> 100	> 100		> 100	> 100	> 100		> 100	> 100	> 100	> 100	> 100		> 100	> 100	> 100	> 100	> 100
CCS(=O)C(=O)N(O)c1ccc(Cl)cc1 (stereo not given)	64.3	> 100	63.2	> 100	> 100	> 100	> 100	> 100	> 100		39.9	35.1	25	> 100		55.4	> 100	> 100
CSc1nc(=S)[nH]c2c1c(C)nn2-c1ccccc1	88.1	> 100	49	40.6	46.6	> 100	> 100	35.7	> 100	> 100	51.9	> 100	45.3	> 100		> 100	84.4	
CSc1ncnc2c1cnn2Cc1cn(COCCO)nn1	> 100	> 100	> 100	> 100		> 100	> 100	> 100	> 100	55.4	> 100	> 100		59.1		> 100		
COc1ccc(-n2c(CCC(=O)O)nc3c2C(=O)c2ccccc2C3=O)cc1	> 100	> 100	> 100	> 100	> 100	> 100	> 100		> 100	> 100	> 100	> 100	> 100	> 100	> 100	> 100	> 100	> 100
O=C1N=C2SC=C(NC(=S)Nc3ccccc3)N2NC12c1ccccc1-c1ccccc12	> 10	> 10	> 10	> 10	> 10	> 10	> 10	> 10	> 10	> 10	> 10	> 10	> 10		> 10	> 10	> 10	> 10
FC(F)(F)c1ccccc1C1SCC2=Nc3ccccc3CN21 (stereo not given)	24.2	27.6	95	25.4	24.9	27.6	23.1	60.9	27.4	30	> 100	24.6	> 100		30.5	29.2	26.2	36.5
COc1ccc(/C=c2\c(=O)[nH]c3nc4ccccc4c(=O)n23)cc1	> 100	> 100	> 100	> 100	> 100	> 100	> 100	> 100	> 100	> 100		> 100	> 100	> 100	> 100	> 100	> 100	> 100
CCCCOCCOCCOC1=CC(=O)c2c(O)ccc(O)c2C1=O	2.95	3.43	6.01	3.1	> 10	3.25	3.22	6.28	6.5		6.25	2.85	8.22	3		> 10	3.06	
COc1ccc(Nc2nc3ccccc3n3cccc23)cc1OC	35	43.6	15.2	35.6	68.5	27.6	32.7	> 100	> 100	> 100	> 100	30.7	43.3	42.8	29.5	53.3	35.4	
O=C/C(=C1/C=Cc2cc([N+](=O)[O-])ccc2S1)c1ccccc1	> 100	> 100	> 100	> 100	> 100	> 100	> 100	> 100	> 100	> 100	> 100	> 100	> 100	> 100		> 100	> 100	> 100
O[C@]12C=C(c3nccc4c3[nH]c3ccccc34)[C@@H]3CCN(CCCC/C=C\CC1)C[C@@]31CC3/C=C\CCCCN3[C@H]12 (stereo not given in full)	0.615	11.2	> 29.6	2.86	3.57	0.936	0.525	0.741	2.9	1.36	2.84	0.896		1.55	1.51	8.59	2.67	2.88
Cc1c(C)c2c(c(N)c1C#N)C(=O)N(O)C2=O	> 100	> 100	> 100	> 100	> 100	> 100		> 100	> 100	> 100	> 100	> 100	> 100	> 100	> 100	> 100	> 100	> 100
CCN(CC)CCCNc1c2c(Cl)cc(Cl)cc2nc2nc(=O)[nH]c(C)c12	38.1	> 100	> 100	> 100	> 100	51	64.7	> 100	> 100	36.4	> 100	61.9	54.3	> 100	> 10	52.5	> 100	
O=C1CN(c2ccccc2)Cc2nc(Cl)ccc2N1	> 100	> 100	> 100	> 100	> 100	> 100	> 100	> 100	> 100	> 100	> 100	> 100	> 100		> 100	> 100	> 100	> 100
O=C(NCCN1CCCCC1)c1ccc(Br)cc1	> 100	> 100		> 100	> 100	> 100	> 100	> 100	> 100	> 100	> 100	> 100	> 100	> 100	> 100	> 100	> 100	> 100
CC(C)(C)OC(=O)NC1CCCC1C(=O)C1=CCCC1 (stereo not given)	> 100	> 100	> 100	> 100		> 100	> 100	> 100	> 100	> 100	> 100	> 100	> 100	> 100	> 100	> 100		> 100
COC(=O)C1(NC(=O)C(Cc2ccccc2)N(C(=O)OC(C)(C)C)C(=O)OC(C)(C)C)CCCC1 (stereo not given)	> 10	> 100	> 100	> 100	> 100	> 100	> 100	> 100	> 100		> 100	> 100	> 100		> 100	> 100		> 100
O=c1[nH]nc(Cc2ccccc2)n1/N=C/c1cccs1	> 100	> 100	> 100	> 100	> 100	> 100	> 100		> 100	> 100	> 100	> 100	> 100	> 100	> 100	> 100	> 100	> 100
O=C1Oc2ccccc2C1C/C(=N\Nc1ccccc1)c1ccccc1O (stereo not given)	> 100	> 100	> 100	> 100	> 100	> 100	> 100	78.8	> 100	78.5		> 100	78.7	> 100	> 100	> 100	> 100	> 100
CCC(NC(C)c1ccccc1)C(=O)c1ccc(OCc2ccccc2)c(OCc2ccccc2)c1 (stereo not given)	> 100	> 100		> 100	> 100	> 100	> 100	> 100	> 100	> 100	> 100	> 100		> 100	> 100	> 100	> 100	> 100

Reference: PubChem BioAssay (NCI)
